Laboratory results as given in patent US11117892B2, “Pyrrolo-pyridine derivative compound, method for preparing same, and pharmaceutical composition containing same as active ingredient for prevention or treatment of protein kinase-related diseases” (DAEGU-GYEONGBUK MEDICAL INNOVATION FOUNDATION, priority 2017, dated 2021).

Legend:
[1] = biological target: CDK5 (Homo sapiens (Human), UniProt Q00535); experiment: scanMAX Kinase assay panel; type: binding; conditions: read-out: % control
How it was run: (§1)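 Selectivity was measured on the scanMAX platform. The compound signal minus the positive-control signal was divided by the DMSO-minus-positive-control window and multiplied by 100.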

[2] = biological target: CLK1 (Homo sapiens (Human), UniProt P49759); experiment: scanMAX Kinase assay panel; type: binding; conditions: read-out: % control
How it was run: as §1

[3] = biological target: CLK2 (Homo sapiens (Human), UniProt P49760); experiment: scanMAX Kinase assay panel; type: binding; conditions: read-out: % control
How it was run: as §1

[4] = biological target: CLK3 (Homo sapiens (Human), UniProt P49761); experiment: scanMAX Kinase assay panel; type: binding; conditions: read-out: % control
How it was run: as §1

[5] = biological target: CLK4 (Homo sapiens (Human), UniProt Q9HAZ1); experiment: scanMAX Kinase assay panel; type: binding; conditions: read-out: % control
How it was run: as §1

[6] = biological target: CSNK1E (Homo sapiens (Human), UniProt P49674); experiment: scanMAX Kinase assay panel; type: binding; conditions: read-out: % control
How it was run: as §1

[7] = biological target: DYRK1A (Homo sapiens (Human), UniProt Q13627); experiment: scanMAX Kinase assay panel; type: binding; conditions: read-out: % control
How it was run: as §1

[8] = biological target: DYRK1B (Homo sapiens (Human), UniProt Q9Y463); experiment: scanMAX Kinase assay panel; type: binding; conditions: read-out: % control
How it was run: as §1

[9] = biological target: DYRK2 (Homo sapiens (Human), UniProt Q92630); experiment: scanMAX Kinase assay panel; type: binding; conditions: read-out: % control
How it was run: as §1

[10] = biological target: GSK3B (Homo sapiens (Human), UniProt P49841); experiment: scanMAX Kinase assay panel; type: binding; conditions: read-out: % control
How it was run: as §1

[11] = test system: mouse pancreatic β-cell; experiment: mouse pancreatic β-cell proliferation (Ki-67/insulin staining); type: cell-based
Method: It is known that when human β-cells are treated with harmine that inhibits DYRK1A, the proliferation of β-cells is promoted by increasing the transcription factor activity by inhibiting the phosphorylation of NFAT known as a phosphorylation substrate of DYRK1A.
Particularly, pancreatic Langerhans islet tissues were extracted from the mouse at 8 weeks old, followed by culture in RPMI1640 medium supplemented with 10% FCS (fetal calves serum), 5.5 mM glucose and 1% penicillin-streptomycin for 24 hours.
Next, in order to separate β-cells as single cells from the Langerhans islet, cells were washed twice with PBS, followed by centrifugation. The collected cells were left in the medium supplemented with 1 mg/ml of trypsin for 10 minutes at 37° C. The cells were shaken using a pipette every 10 seconds for 5 minutes. Trypsin reaction was terminated by adding RPMI1640 containing 10% FCS (fetal calves serum), 5.5 mM glucose and 1% penicillin-streptomycin, followed by centrifugation to collect single cells.
Then, the single cells were loaded on the laminin-coated cover glass and stabilized for 24 hours. The cells were cultured in the medium containing the compound of the present invention for 72 hours. […] The cells double-stained with Ki-67/insulin were counted under Olympus F-1000 confocal fluorescence microscope to investigate cell proliferation.

[12] = test system: 5× FAD mice; experiment: Tau phosphorylation (AT180 immunohistochemistry) in Alzheimer's disease animal model; type: in vivo; conditions: 20 mg/kg i.p. every day for 2 weeks, vs vehicle
Method: 2 weeks later, immunohistochemistry was performed using AT180, one of Tau phosphorylation antibodies, and as a result confocal microscope images were obtained. Quantitative analysis with the images was performed using image j software.

[13] = test system: 5× FAD mice; experiment: Y-maze behavioral test, short term cognitive function; type: in vivo; conditions: 20 mg/kg i.p. every day for 2 weeks, vs non-treated group
Method: Then, the mice were placed in Y-maze composed of three arms abutting 120°, and each arm was lifted sequentially for five minutes to calculate the number of alternation triplets to see how well the mice remembered where they visited.
The equipment used for Y-maze test is composed of three arms. The length of each arm was 42 cm, the width thereof was 3 cm and the height was 12 cm. The angle of contact between the three arms is 120°. All experimental devices were made of black polyvinyl plastic. Each arm was assigned with A, B and C. A test mouse was carefully located in one arm and let move freely for 8 minutes. Then, the arm which the test mouse entered was recorded. At this time, the ‘enter’ means the case when the mouse tail was completely in. If the mouse entered an arm where it had already visited, the case was also recorded. If the mouse entered three different arms one by one (actual alternation), one point was given. Alternation behavior was defined by that the mouse entered three different arms stepwise, which was calculated by the following equation. […] [alternation behavior (%)=actual alternation/*maximum alternation×100]
*maximum alternation: total entries−2

[14] = test system: 5× FAD mice; experiment: novel object recognition test, long term cognitive function; type: in vivo; conditions: 20 mg/kg i.p. every day for 2 weeks, vs non-treated group
Method: Novel object recognition test is an experiment to test the memory of perception of an object. Mice were let to see two identical objects. After a certain period of time had passed (several hours˜a week), the mice were let to see a novel object together with the object previously presented. Then, how much those mice were interested in the novel object and studied it was evaluated, leading to the evaluation of long term memory of the previous object.
Two objects which were the same in the shape and in the size (F, F) were placed in a specific corner of the open field box (42×42×42 cm) made that the outside is not invisible from the inside, and a test mouse was started from the center of the box. Then, the number and time of the test mouse touching those two objects were recorded for 5 minutes (Acquisition). 24 hours later, one of those two objects was replaced with a new one (F, N). The number and time of access to the original object (F) and the new object (N) were recorded and digitized (Discrimination). Preference for the object (p) was calculated by (time to approach to a certain object)/(total time to approach to two objects). FIG. 10(a) presents the schematic diagram of novel object recognition test, and FIG. 10(b) presents the calculation results.

Sequence of DYRK2 (Q92630 whole entry): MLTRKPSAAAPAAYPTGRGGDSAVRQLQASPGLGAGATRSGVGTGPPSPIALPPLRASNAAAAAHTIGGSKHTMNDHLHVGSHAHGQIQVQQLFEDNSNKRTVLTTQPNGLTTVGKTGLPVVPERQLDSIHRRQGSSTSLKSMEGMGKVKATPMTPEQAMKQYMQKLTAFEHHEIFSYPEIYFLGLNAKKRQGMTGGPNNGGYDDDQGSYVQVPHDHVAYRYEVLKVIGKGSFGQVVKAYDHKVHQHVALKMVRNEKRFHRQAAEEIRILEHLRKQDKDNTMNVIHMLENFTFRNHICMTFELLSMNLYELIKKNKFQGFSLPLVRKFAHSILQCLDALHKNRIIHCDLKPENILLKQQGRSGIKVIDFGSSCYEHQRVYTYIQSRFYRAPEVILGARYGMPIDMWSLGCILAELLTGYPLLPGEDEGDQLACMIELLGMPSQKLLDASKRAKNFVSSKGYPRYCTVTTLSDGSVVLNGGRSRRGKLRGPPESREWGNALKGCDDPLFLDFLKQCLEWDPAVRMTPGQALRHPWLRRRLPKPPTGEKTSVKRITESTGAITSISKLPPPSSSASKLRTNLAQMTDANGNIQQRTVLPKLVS
Sequence of GSK3B (P49841 whole entry): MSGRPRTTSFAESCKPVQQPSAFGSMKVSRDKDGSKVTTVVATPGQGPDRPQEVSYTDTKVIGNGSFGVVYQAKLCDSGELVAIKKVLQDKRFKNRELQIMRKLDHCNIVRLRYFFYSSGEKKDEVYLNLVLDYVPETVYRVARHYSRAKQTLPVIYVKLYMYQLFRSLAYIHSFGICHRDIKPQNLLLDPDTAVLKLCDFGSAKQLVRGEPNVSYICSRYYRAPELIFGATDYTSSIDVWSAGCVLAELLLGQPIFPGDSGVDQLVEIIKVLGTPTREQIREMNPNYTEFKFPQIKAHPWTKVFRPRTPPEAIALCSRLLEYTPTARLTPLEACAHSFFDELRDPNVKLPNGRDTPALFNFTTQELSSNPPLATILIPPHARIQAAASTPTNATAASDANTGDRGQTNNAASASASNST
Sequence of CLK3 (P49761 whole entry): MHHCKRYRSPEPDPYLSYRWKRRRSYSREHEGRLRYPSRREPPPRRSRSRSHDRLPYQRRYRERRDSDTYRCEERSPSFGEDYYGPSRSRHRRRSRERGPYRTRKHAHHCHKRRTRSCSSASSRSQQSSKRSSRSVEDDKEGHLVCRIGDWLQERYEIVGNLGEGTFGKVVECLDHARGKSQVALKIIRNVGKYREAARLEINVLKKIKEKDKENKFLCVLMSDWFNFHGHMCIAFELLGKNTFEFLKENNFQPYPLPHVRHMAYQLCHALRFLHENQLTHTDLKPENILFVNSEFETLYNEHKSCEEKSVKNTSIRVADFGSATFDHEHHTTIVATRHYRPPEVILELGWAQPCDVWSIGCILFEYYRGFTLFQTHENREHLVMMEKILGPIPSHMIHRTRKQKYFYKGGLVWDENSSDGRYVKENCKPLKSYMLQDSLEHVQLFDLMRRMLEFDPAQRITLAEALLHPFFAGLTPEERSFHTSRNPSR
Sequence of CLK4 (Q9HAZ1 whole entry): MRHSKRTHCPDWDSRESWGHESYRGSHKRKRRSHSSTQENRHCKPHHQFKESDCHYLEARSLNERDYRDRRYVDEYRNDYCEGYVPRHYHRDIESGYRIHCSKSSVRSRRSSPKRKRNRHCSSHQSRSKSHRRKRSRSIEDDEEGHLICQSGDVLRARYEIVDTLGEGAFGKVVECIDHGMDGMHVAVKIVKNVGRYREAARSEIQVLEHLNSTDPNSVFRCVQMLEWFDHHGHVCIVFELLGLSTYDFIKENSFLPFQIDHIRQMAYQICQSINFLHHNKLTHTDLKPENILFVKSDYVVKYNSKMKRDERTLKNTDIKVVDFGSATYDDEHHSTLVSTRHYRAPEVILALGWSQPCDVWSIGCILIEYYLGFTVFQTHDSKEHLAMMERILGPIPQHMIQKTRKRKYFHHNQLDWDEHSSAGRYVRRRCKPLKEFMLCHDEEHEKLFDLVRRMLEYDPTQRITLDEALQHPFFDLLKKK
Sequence of CLK2 (P49760 whole entry): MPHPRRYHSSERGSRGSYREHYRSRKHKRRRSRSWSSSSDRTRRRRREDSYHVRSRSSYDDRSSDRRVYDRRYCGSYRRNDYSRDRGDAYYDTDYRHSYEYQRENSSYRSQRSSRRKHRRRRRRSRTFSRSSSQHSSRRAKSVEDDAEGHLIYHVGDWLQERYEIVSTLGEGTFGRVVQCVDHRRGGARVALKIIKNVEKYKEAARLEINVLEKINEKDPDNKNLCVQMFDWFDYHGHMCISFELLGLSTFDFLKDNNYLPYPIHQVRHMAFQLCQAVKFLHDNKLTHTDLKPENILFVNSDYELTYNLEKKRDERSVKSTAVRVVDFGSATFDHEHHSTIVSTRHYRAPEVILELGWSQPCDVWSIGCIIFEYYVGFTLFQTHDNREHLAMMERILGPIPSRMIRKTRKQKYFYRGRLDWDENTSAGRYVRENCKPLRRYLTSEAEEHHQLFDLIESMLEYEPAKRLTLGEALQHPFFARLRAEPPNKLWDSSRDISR
Sequence of CDK5 (Q00535 whole entry): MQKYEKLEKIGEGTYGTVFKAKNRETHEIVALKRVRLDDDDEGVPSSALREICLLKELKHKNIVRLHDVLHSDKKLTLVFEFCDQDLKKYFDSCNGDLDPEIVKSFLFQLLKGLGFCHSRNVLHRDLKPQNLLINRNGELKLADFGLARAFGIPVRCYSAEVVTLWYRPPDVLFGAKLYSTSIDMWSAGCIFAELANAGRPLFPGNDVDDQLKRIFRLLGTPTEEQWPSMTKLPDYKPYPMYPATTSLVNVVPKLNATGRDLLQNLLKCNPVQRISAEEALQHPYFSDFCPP
Sequence of CSNK1E (P49674 whole entry): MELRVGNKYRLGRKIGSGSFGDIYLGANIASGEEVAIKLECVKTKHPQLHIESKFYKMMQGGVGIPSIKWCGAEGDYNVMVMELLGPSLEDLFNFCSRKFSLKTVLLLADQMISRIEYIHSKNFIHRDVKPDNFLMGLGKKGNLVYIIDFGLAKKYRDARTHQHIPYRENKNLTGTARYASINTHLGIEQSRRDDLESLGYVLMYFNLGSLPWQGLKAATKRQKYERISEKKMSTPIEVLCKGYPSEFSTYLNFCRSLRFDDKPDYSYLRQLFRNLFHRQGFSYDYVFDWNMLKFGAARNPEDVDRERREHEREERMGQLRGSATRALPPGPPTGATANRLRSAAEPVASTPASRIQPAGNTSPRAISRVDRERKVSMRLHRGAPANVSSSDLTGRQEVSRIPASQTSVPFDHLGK
Sequence of CLK1 (P49759 whole entry): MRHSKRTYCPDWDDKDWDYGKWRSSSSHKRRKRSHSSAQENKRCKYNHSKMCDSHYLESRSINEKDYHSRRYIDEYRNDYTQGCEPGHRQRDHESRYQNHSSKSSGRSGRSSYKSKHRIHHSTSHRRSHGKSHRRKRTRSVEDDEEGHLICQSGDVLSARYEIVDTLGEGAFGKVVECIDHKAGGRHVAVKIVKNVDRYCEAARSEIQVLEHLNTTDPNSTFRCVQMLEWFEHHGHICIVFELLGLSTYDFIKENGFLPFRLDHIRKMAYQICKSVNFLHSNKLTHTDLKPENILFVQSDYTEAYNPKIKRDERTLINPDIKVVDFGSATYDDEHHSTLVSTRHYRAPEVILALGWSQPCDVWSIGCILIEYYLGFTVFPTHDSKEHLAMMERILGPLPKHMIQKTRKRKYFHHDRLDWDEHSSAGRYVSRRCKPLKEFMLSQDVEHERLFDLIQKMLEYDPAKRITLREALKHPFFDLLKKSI
Sequence of DYRK1B (Q9Y463 whole entry): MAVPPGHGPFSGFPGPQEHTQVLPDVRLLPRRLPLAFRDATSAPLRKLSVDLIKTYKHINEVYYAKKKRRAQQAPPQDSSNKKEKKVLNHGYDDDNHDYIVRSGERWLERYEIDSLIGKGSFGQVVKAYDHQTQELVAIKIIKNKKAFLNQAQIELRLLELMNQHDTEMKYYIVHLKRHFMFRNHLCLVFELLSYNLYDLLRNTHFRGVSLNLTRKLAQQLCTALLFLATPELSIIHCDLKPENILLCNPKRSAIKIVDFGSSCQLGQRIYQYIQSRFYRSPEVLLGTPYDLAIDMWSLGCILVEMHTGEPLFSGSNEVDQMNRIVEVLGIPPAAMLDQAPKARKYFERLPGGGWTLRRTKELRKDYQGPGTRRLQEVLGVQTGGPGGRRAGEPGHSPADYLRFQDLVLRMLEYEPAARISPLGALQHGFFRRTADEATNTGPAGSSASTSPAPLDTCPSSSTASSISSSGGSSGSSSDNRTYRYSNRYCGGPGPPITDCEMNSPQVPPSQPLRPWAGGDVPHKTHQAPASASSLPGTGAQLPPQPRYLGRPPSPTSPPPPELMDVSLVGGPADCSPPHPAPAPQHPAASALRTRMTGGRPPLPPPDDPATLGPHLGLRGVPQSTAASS

Compound	remaining binding at 1 µM [1] [%]	remaining binding at 1 µM [2] [%]	remaining binding at 1 µM [3] [%]	remaining binding at 1 µM [4] [%]	remaining binding at 1 µM [5] [%]	remaining binding at 1 µM [6] [%]	remaining binding at 1 µM [7] [%]	remaining binding at 1 µM [8] [%]	remaining binding at 1 µM [9] [%]	remaining binding at 1 µM [10] [%]	increase of the cell number ([11]; Ki-67/insulin double-stained cells, 72 hours) [times]	cell proliferation ([11]; mouse pancreatic β-cells cultured with compound for 72 hours)	immunoreactivity of AT180 in the cerebral cortex region [12]	immunoreactivity of AT180 in the hippocampus [12]	short term memory (Y-maze alternation behavior) [13]	long term memory (preference for the new object) [14]
CCNc1cc(Nc2ccc(C(=O)N3CCC(N4CCOCC4)CC3)cc2OC)nc2[nH]cc(C#N)c12 [Example 18, 4-(ethylamino)-6-((2-methoxy-4-(4-morpholinopiperidine-1-carbonyl)phenyl)amino)-1H-pyrrolo[2,3-b]pyridine-3-carbonitrile]	100	1.9	8.5	73	4	0.6	2	4	14	97						
CCNc1cc(Nc2ccc(C(=O)N3CCC(N4CCOCC4)CC3)cc2OC)nc2[nH]cc(C(F)(F)F)c12 [Example 57, (4-((4-(ethylamino)-3-(trifluoromethyl)-1H-pyrrolo[2,3-b]pyridin-6-yl)amino)-3-methoxyphenyl) (4-morpholinopiperidin-1-yl)methanone]											5	active	no significant change	significantly reduced	improved short term memory	improved long term memory
